Laboratory results as given in patent US11427601B1, “Inhibitors of KEAP1-Nrf2 protein-protein interaction” (Janssen Pharmaceutica NV, priority 2018, dated 2022).

These compounds were tested on NrF2 activation of the ARE (Glo-Response ARE-luc2P HEK293 cell line) (assay: ARE luciferase reporter assay in HEK293 cells). Conditions: 24 hours, average of results obtained.
Format: cell-based
Protocol: The ARE assay utilizes a luciferase reporter cell line where the signal is proportional to NrF2 activation of the ARE. The cell line is commercially available from Promega and was prepared by stably transfecting HEK293 cells with a vector (pGL4.11) which contains the ARE response element upstream of a minimal promoter. The promoter drives expression of luc2 firefly luciferase gene. Upon disruption of KEAP1-Nrf2 binding by compound, Nrf2 translocates into the nucleus where it binds to the ARE and activates transcription of luciferase.
The materials used in this ARE assay are as follows: Glo-Response ARE-luc2P HEK293 cell line and One-Glo Luciferase Assay System were purchased from Promega (Madison, Wis.). Dulbecco's Modified Eagle medium ((DMEM), low glucose, GlutaMAX, pyruvate), fetal bovine serum (certified, heat inactivated), hygromycin B, Dulbecco's phosphate-buffered saline were purchased from Life Technologies (Grand Island, N.Y.). Penicillin, streptomycin solution (100×) and 0.05% trypsin-EDTA were purchased from Corning (Manassas, Va.). DMSO was purchased from EMD Millipore.
The ARE assay protocol is as follows: cells were maintained in growth medium (DMEM +10% FBS, 200 μg/mL hygromycin B, p-s) between 20-90% confluency by splitting twice per week. One day before the assay, cells were trypsinized, counted to determine viable cell count, and re-suspended in assay medium (DMEM +10% FBS, p-s) at 250,000 cells/mL. […] 100% DMSO was used as the low control. A 11-point dose series of the control compound was included on every plate. Compounds were spotted to an intermediate plate (Greiner # 781280 V-bottom 384 well plate) using the Echo acoustic dispenser (Labscyte San Jose, Calif.). Spot size was 240 nL.
On the day of the assay, 60 mL per well of assay medium was added to the pre-spotted plate to make 2X compound stocks using the Combi (Thermo Waltham, Mass.). Compound and medium were mixed on the Janus and 20 mL of 2× compound stock was added to the cell plate which already contained 20 mL of assay medium from cell plating. […] The plates were returned to the tissue culture incubator for 24 hours.
The next day, luciferase activity was measured according to the manufacturer's protocol for One-Glo luciferase reagent. The plates were removed from the incubator and allowed to equilibrate to room temperature for 30 min. Forty microliters of One-Glo reagent (equilibrated to room temperature) was added per well using the Combi. The plates were mixed on an orbital shaker for 3 min. Luminescence was read on the BMG Pherastar multiplate reader (Cary, N.C.) using the luminescence protocol (1 sec interval).
The dose-response data were analyzed in Genedata Screener using 4PL nonlinear regression model. Raw luminescence counts as well as normalized values were used for data analysis.
Compound `Cc1ccc([C@@H](c2ccn3c(C(F)(F)F)nnc3c2C)C(C)(C)C(=O)O)cc1CN1CC2(CC2)Oc2nc(OCCN3CCCC3)ccc2S1(=O)=O` (single isomer, unassigned) [Example 598, (*S)-3-(3-((1′,1′-dioxido-7′-(2-(pyrrolidine-1-yl)ethoxy)spiro[cyclopropane-1,4′-pyrido[2,3-b][1,4,5]oxathiazepin]-2′(3′H)-yl)methyl)-4-methylphenyl)-2,2-dimethyl-3-(8-methyl-3-(trifluoromethyl)-[1,2,4]triazolo[4,3-a]pyridine-7-yl)propanoic acid] has an EC50 of 8.85 nM.
In the case of `Cc1cnc2c(c1)S(=O)(=O)N(Cc1cc([C@H](CC(=O)O)c3ccn4c(C(F)(F)F)nnc4c3C)ccc1C)C[C@@H]1CCCCN21` (relative stereo) [Example 307, (*S)-3-(4-methyl-3-(((*S)-3-methyl-5,5-dioxido-7,7a,8,9,10,11-hexahydro-6H-dipyrido[2,1-d:2′,3′-f][1,2,5]thiadiazepin-6-yl)methyl)phenyl)-3-(8-methyl-3-(trifluoromethyl)-[1,2,4]triazolo[4,3-a]pyridin-7-yl)propanoic acid], the EC50 is reported as 2 nM.
`Cc1ccc([C@H](c2ccc3c(nnn3C3CC3)c2C)C(C)(C)C(=O)O)cc1CN1CC2(CC2)Oc2nc(N[C@@H](C)CN3CCCCC3)c(C)cc2S1(=O)=O` (relative stereo) [Example 660, (*R)-3-(1-Cyclopropyl-4-methyl-1H-benzo[d][1,2,3]triazol-5-yl)-2,2-dimethyl-3-(4-methyl-3-((8′-methyl-1′,1′-dioxido-7′-(((S)-1-(piperidin-1-yl)propan-2-yl)amino)spiro[cyclopropane-1,4′-pyrido[2,3-b][1,4,5]oxathiazepin]-2′(3′H)-yl)methyl)phenyl)propanoic acid] was tested, and the EC50 was 235 nM.
`CCc1nnc2c(C)c([C@H](CC(=O)O)c3ccc(C)c(CN4C[C@H]5CCCN5c5ncccc5S4(=O)=O)c3)ccn12` (relative stereo) [Example 283, (*R)-3-(3-(((R)-5,5-dioxido-7a,8,9,10-tetrahydropyrido[2,3-f]pyrrolo[2,1-d][1,2,5]thiadiazepin-6(7H)-yl)methyl)-4-methylphenyl)-3-(3-ethyl-8-methyl-[1,2,4]triazolo[4,3-a]pyridin-7-yl)propanoic acid] was tested, and the EC50 was 4170 nM.
Compound `Cc1ccc([C@H](CC(=O)O)c2ccc3c(nnn3CC3CC3)c2C(F)F)cc1CN1C[C@@H]2CCCCN2c2ncccc2S1(=O)=O` (relative stereo) [Example 172, (*S)-3-(1-(Cyclopropylmethyl)-4-(difluoromethyl)-1H-benzo[d][1,2,3]triazol-5-yl)-3-(3-(((*S)-5,5-dioxido-7,7a,8,9,10,11-hexahydro-6H-dipyrido[2,1-d:2′,3′-f][1,2,5]thiadiazepin-6-yl)methyl)-4-methylphenyl)propanoic acid] has an EC50 of 19 nM.
In the case of “(*S)-3-(3-((7′-(3-((2-(2-aminoethoxy)ethyl)amino)-3-oxopropyl)-1′,1′-dioxido-2,3,5,6-tetrahydrospiro[pyran-4,4′-pyrido[2,3-b][1,4,5]oxathiazepin]-2′(3′H)-yl)methyl)-4-methylphenyl)-2,2-dimethyl-3-(8-methyl-3-(trifluoromethyl)-[1,2,4]triazolo[4,3-a]pyridin-7-yl)propanoic acid [Example 345]”, the EC50 is reported as greater than 20 nM.
`Cc1ccc([C@H](CC(=O)O)c2ccn3c(C(F)(F)F)nnc3c2C)cc1CN1CC2(COC2)Oc2ccc(F)cc2S1(=O)=O` (single isomer, unassigned) [Example 99] gave an EC50 of 5.8 nM.

Same assay, conditions: Homo sapiens, HEK293, 24 h, average of results obtained
For `Cc1ccc([C@H](CC(=O)O)c2cc(OC(F)F)c3c(c2)nnn3C)cc1CN1C[C@H]2CCCN2c2ncccc2S1(=O)=O` (single isomer, unassigned) [Example 247, (*S)-3-(7-(Difluoromethoxy)-1-methyl-1H-benzo[d][1,2,3]triazol-5-yl)-3-(3-(((R)-5,5-dioxido-7a,8,9,10-tetrahydropyrido[2,3-f]pyrrolo[2,1-d][1,2,5]thiadiazepin-6(7H)-yl)methyl)-4-methylphenyl)propanoic acid], the EC50 was 225 nM.
Compound `Cc1cnc2c(c1)S(=O)(=O)N(Cc1cc(C(c3ccn4c(C(F)(F)F)nnc4c3C)C(C)(C)C(=O)O)cnc1C)CC1(CC1)O2` (single isomer, unassigned) [Example 574, (*R)-2,2-Dimethyl-3-(8-methyl-3-(trifluoromethyl)-[1,2,4]triazolo[4,3-a]pyridin-7-yl)-3-(6-methyl-5-((8′-methyl-1′,1′-dioxidospiro[cyclopropane-1,4′-pyrido[2,3-b][1,4,5]oxathiazepin]-2′(3′H)-yl)methyl)pyridin-3-yl)propanoic acid] has an EC50 of 14600 nM.
With `Cc1cnc2c(c1)S(=O)(=O)N(Cc1cc([C@H](c3ccn4c(C(F)(F)F)nnc4c3C)C(C)(C)C(=O)O)cnc1C)CC1(CC1)O2` (single isomer, unassigned) [Example 573, (*S)-2,2-Dimethyl-3-(8-methyl-3-(trifluoromethyl)-[1,2,4]triazolo[4,3-a]pyridin-7-yl)-3-(6-methyl-5-((8′-methyl-1′,1′-dioxidospiro[cyclopropane-1,4′-pyrido[2,3-b][1,4,5]oxathiazepin]-2′(3′H)-yl)methyl)pyridin-3-yl)propanoic acid] the EC50 was 321 nM.
Compound `Cc1ccc([C@H](c2cc(C)n3c(C(F)(F)F)nnc3c2C)C(C)C(=O)O)cc1CN1C[C@@H]2CCCCN2c2ncccc2S1(=O)=O` (relative stereo) [Example 133, (3*R)-3-(5,8-Dimethyl-3)-(trifluoromethyl)-[1,2,4-triazolo[4,3-a]pyridine-7-yl)-3-(3-((*S)-5,5-dioxido-7,7a,8,9,10,11-hexahydro-6H-dipyrido[2,1-d:2′,3′-f][1,2,5]thiadiazepin-6-yl)methyl)-4-methylphenyl)-2-methylpropanoic acid] has an EC50 of 2 nM.
`Cc1ccc(C(c2ccn3c(C(F)(F)F)nnc3c2C)C(C)C(=O)O)cc1CN1C[C@@H]2CCCCN2c2ncccc2S1(=O)=O` (stereo in doubt) [Example 129, 3-(3-(((*S)-5,5-Dioxido-7,7a,8,9,10,11-hexahydro-6H-dipyrido[2,1-d:2′,3′-f][1,2,5]thiadiazepin-6-yl)methyl)-4-methylphenyl)-2-methyl-3-(8-methyl-3-(trifluoromethyl)-[1,2,4]triazolo[4,3-a]pyridine-7-yl)propanoic acid] showed an EC50 of 6.8 nM.

What follows are compounds tested against Kelch domain of human KEAP 1 (321-624 aa) (Homo sapiens (Human), UniProt Q14145) (assay: KEAP1 KELCH ThermoFluor binding assay). Conditions: KEAP Kelch 1.1 μM, pH 7.0, average of results obtained, read-out: Tf Kd.
Chain of Kelch domain of human KEAP 1 (321-624 aa) (Q14145 321-624): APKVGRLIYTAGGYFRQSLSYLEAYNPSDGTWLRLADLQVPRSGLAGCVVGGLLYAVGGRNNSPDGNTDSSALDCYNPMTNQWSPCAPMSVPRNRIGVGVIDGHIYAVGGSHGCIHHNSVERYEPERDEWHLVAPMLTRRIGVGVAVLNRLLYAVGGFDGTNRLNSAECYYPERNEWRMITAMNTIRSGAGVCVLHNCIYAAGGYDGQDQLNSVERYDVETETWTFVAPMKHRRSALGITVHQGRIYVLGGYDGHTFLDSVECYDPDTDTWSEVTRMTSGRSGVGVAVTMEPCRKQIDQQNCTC
Description: The shift in the melting point described as a ΔTm is proportional to the concentration and affinity of the ligand. The compound potency may be compared as a rank order of either ΔTm values at a single compound concentration or in terms of KD values, estimated from concentration response curves.
The protein was expressed in E. coli with 6His tag that was cleaved prior to receipt for use.
Protein (KEAP Kelch) and compound solutions were dispensed into black 384-well polypropylene PCR microplates (Abgene) and overlayed with silicone oil (1 μL, Fluka, type DC 200) to prevent evaporation.
Work on `CCn1nnc2c(C)c(C(CC(=O)O)c3ccc(C)c(CN4CC5(COC5)Oc5ccccc5S4(=O)=O)n3)ccc21` (racemic) [Example 237, (R/S)-3-(6-((1,1-Dioxidospiro[benzo[b][1,4,5]oxathiazepine-4,3′-oxetan]-2(3H)-yl)methyl)-5-methylpyridin-2-yl)-3-(1-ethyl-4-methyl-1H-benzo[d][1,2,3]triazol-5-yl)propanoic acid] yielded a Kd of 1.5 nM.
For `Cc1ccc(C(c2ccn3c(C(F)(F)F)nnc3c2C)C(C)C(=O)O)cc1CN1C[C@@H]2CCCCN2c2ncccc2S1(=O)=O` (stereo in doubt) [Example 129, 3-(3-(((*S)-5,5-Dioxido-7,7a,8,9,10,11-hexahydro-6H-dipyrido[2,1-d:2′,3′-f][1,2,5]thiadiazepin-6-yl)methyl)-4-methylphenyl)-2-methyl-3-(8-methyl-3-(trifluoromethyl)-[1,2,4]triazolo[4,3-a]pyridine-7-yl)propanoic acid], the Kd was less than 1 nM.
